Values after ≈ are worked out from the molar mass of the structure shown. Like-named read-outs stand apart in the source and are kept apart here.
What was measured:
[1] = DPPH microplate radical scavenging antioxidant assay; type: biochemical; settings: for IC50: DPPH, 30 min, mean ± SD (n = 3); for antioxidant activity: overview
Experimental: The antioxidant activity of the synthesized compounds was measured in terms of hydrogen-donating or radical scavenging ability using the DPPH microplate-based method. Absorbance measurement was obtained using Microplate/cuvette reader (Spectramax M5, Molecular Devices, California, USA). Reference standard compound ascorbic acid was used as the positive control for this assay at concentrations ranging from 1.563 to 200 μg/mL. Test samples were prepared at a starting concentration of 200 μg/mL after mixing with 100 μl of 0.2 mM DPPH methanolic solution. A series of concentrations were tested for the samples in order to determine the 50% inhibitory concentration (IC50). Samples were incubated with DPPH in the dark for 30 min at room temperature (25° C.). The DPPH solution in methanol was prepared daily and stored in a flask covered with aluminum foil. DPPH radicals have an absorption maximum (λmax) at 515 nm, in which the absorbance values were measured and converted into percentage of antioxidant activity.
Methanolic DPPH solution without antioxidant was applied as control and background control was samples in methanol only. IC50 was determined using Graphpad Prism 7 (Graphpad Software Inc. CA, USA). The percentage inhibition was calculated by using the formula:
The assay was carried out in triplicate and performed as much as possible in an area protected against light. The data points are presented as the mean±standard deviation (SD) (n=3).

[2] = system: Bacillus megaterium ATCC 9885; experiment: Agar well diffusion, primary antimicrobial screening; type: cell-based; settings: Priestia megaterium, ATCC9885; B. megaterium ATCC 9885; 100 μL of 10 mg/ml in DMSO, 24 h; read-out: Inhibition Diameter Zone BM
Source text: (§1) The newly synthesized compounds were individually tested for their in vitro antimicrobial activity against the standard bacteria strains of American Type Culture Collection (ATCC), namely, Staphylococcus aureus ATCC 29213, Bacillus subtilis ATCC 6633, Bacillus megaterium ATCC 9885 (Gram-positive), Escherichia coli ATCC 2592 and Pseudomonas aeruginosa ATCC 27953 (Gram-negative). In addition, they were microbiologically tested against the locally isolated Saccharomyces cerevisiae (yeast) and the standard strain of Agricultural Research Service Culture Collection (NRRL) of the yeast like pathogenic fungus Candida albicans NRRL Y-477. The primary screening was carried out using the agar well diffusion method using nutrient agar (NA) medium and Sabourand dextrose agar (SDA) medium for pathological tested bacteria and yeast, respectively.
(§2) Antimicrobial tests were carried out by the agar well diffusion method using 100 μL of suspension containing 1×10^8 CFU/mL of pathological tested bacteria and 1×10^6 CFU/ml of yeast spread on NA and SDA, respectively. After the media was cooled and solidified, wells (10 mm in diameter) were made in the solidified agar and loaded with 100 μL of tested compound solution prepared by dissolving 10 mg of the chemical compound in one ml of dimethyl sulfoxide (DMSO). The inculcated plates were then incubated for 24 h at 37° C. for bacteria and yeast. Negative controls were prepared using DMSO employed for dissolving the tested compound. Ciprofloxacin (10 mg/ml) and ketoconazole (10 mg/ml) were used as standard for antibacterial and antifungal activity, respectively. After incubation time, antimicrobial activity was evaluated by measuring the zone of inhibition against the test organisms and compared with that of the standard. Antimicrobial activities were expressed as inhibition diameter zones in millimeters (mm). The experiment was carried out in triplicate and the average zone of inhibition was calculated.

[3] = system: Bacillus subtilis ATCC 6633; experiment: as above; type: cell-based; settings: for zone of inhibition at 10000 µg/mL: Bacillus subtilis, ATCC6633, B. subtilis ATCC 6633, 100 μL of 10 mg/ml in DMSO, 24 h, read-out: Inhibition Diameter Zone BS; for antibacterial activity compared with reference drug: B. subtilis
Source text: as §1, §2

[4] = system: Candida albicans NRRL Y-477; experiment: as above; type: cell-based; settings: for zone of inhibition at 10000 µg/mL: Candida albicans, NRRLY477, C. albicans NRRL Y-477, 100 μL of 10 mg/ml in DMSO, 24 h, read-out: Inhibition Diameter Zone CA; for antifungal activity compared with reference drug: C. albicans
Source text: as §1, §2

[5] = system: Saccharomyces cerevisiae (local isolate); experiment: as above; type: cell-based; settings: for zone of inhibition at 10000 µg/mL: Saccharomyces cerevisiae, 24 h, read-out: Inhibition Diameter Zone SC
Source text: as §1, §2

trypsin = experiment: Proteinase inhibitory activity (trypsin/casein); type: biochemical; settings: for % Inhibition of proteinase activity: 250 μg/ml, mean ± SD (n = 3)
Experimental: For proteinase inhibitory activity, the reaction mixture (2 ml) contained 0.06 mg trypsin, 20 mM Tris HCl buffer (pH 7.4) and 1 ml test sample (250 μg/ml for each compound). The mixture was incubated for 5 min and then 1 ml of 0.8% (w/v) casein was added. The mixture was incubated for an additional 20 min. 1 ml of 10% perchloric acid was added to arrest the reaction. The cloudy suspension was centrifuged, and the absorbance of the supernatant was read at 280 nm. Reference standard compound aspirin was used as the positive control for this assay. The experiment was performed in triplicate. Percentage inhibition of […] was calculated by using the following formula:
[formula] where Acontrol is the absorbance of the control reaction and Atest is the absorbance of the control reaction with sample.

tested microorganisms = experiment: Agar well diffusion, summary over the tested microorganisms; type: cell-based; settings: against one or more microorganisms
Source text: as §1, §2

[6] = system: Staphylococcus aureus ATCC 29213; experiment: Agar well diffusion, primary antimicrobial screening; type: cell-based; settings: S. aureus
Source text: as §1, §2

[7] = system: Escherichia coli ATCC 2592; experiment: as above; type: cell-based; settings: E. coli
Source text: as §1, §2

[8] = S. cerevisiae local isolate, 100 μL of 10 mg/ml in DMSO

| IC50 [1] | melting point | Structure (SMILES) | % Inhibition of proteinase activity (trypsin) | other results |
| --- | --- | --- | --- | --- |
| — ((—): inactive (IC50 > 200 μg/mL)) | > 300 °C | COc1ccc(/C=C/C(=O)c2ccc(NS(=O)(=O)c3c(O)c4cc(Cl)ccc4oc3=O)cc2)cc1 [Compound 12e, (E)-6-chloro-4-hydroxy-N-(4-(3-(4-methoxyphenyl)acryloyl)phenyl)-2-oxo-2H-chromene-3-sulfonamide] | 22.83 ± 4.88% | – |
| – | 250 to 252 °C | Cc1ccc2oc(=O)c3c(c2c1)OC(N=Cc1ccccc1)=C(C#N)C3c1ccco1 (racemic) [Compound 8b, (±)-2-(benzylideneamino)-4-(furan-2-yl)-9-methyl-5-oxo-4H,5H-pyrano[3,2-c]chromene-3-carbonitrile] | – | – |
| 71.67 ± 3.231 µg/mL (≈ 139 µM) | 215 to 217 °C | O=c1oc2ccc(Cl)cc2c(O)c1S(=O)(=O)Nc1ccc(S(=O)(=O)Nc2nccs2)cc1 [Compound 10e, 6-chloro-4-hydroxy-2-oxo-N-(4-(N-(thiazol-2-yl)sulfamoyl)phenyl)-2H-chromene-3-sulfonamide] | – | – |
| — ((—): inactive (IC50 > 200 μg/mL)) | 220 to 222 °C | Cc1ccc2oc(=O)c(S(=O)(=O)Nc3ccc(C(=O)/C=C/c4ccc([N+](=O)[O-])cc4)cc3)c(O)c2c1 [Compound 12b, (E)-4-hydroxy-6-methyl-N-(4-(3-(4-nitrophenyl)acryloyl)phenyl)-2-oxo-2H-chromene-3-sulfonamide] | – | – |
| 19.25 ± 4.171 µg/mL (≈ 58.1 µM) | 324 to 325 °C | Cc1ccc2oc(=O)c(S(=O)(=O)Nc3ccccc3)c(O)c2c1 [Compound 11b, 4-Hydroxy-6-methyl-2-oxo-N-phenyl-2H-chromene-3-sulfonamide] | 14.3 ± 2.21% | antioxidant activity [1]: particularly high antioxidant activity |
| — ((—): inactive (IC50 > 200 μg/mL)) | > 300 °C | COc1ccc(/C=C/C(=O)c2ccc(NS(=O)(=O)c3c(O)c4cc(C)ccc4oc3=O)cc2)cc1 [Compound 12f, (E)-4-hydroxy-N-(4-(3-(4-methoxyphenyl)acryloyl)phenyl)-6-methyl-2-oxo-2H-chromene-3-sulfonamide] | 21.7 ± 7.6% | – |

More lines, now with the values behind:

| Structure (SMILES) | IC50 [1] | melting point | % Inhibition of proteinase activity (trypsin) | other results |
| --- | --- | --- | --- | --- |
| Cc1ccc2oc(=O)c3c(c2c1)OC(N=CN(C)C)=C(C#N)C3c1ccco1 (racemic) [Compound 7b, (±)-N′-(3-cyano-4-(furan-2-yl)-9-methyl-5-oxo-4H,5H-pyrano[3,2-c]chromen-2-yl)-N,N-dimethylformimidamide] | — ((—): inactive (IC50 > 200 μg/mL)) | 273 to 275 °C | 33.17 ± 2.79% | zone of inhibition at 10000 µg/mL [2]: < 15 mm; zone of inhibition at 10000 µg/mL [3]: < 15 mm; zone of inhibition at 10000 µg/mL [4]: < 15 mm; zone of inhibition at 10000 µg/mL [5]: < 15 mm |
| CC(=O)Oc1ccccc1C(=O)O [Aspirin, aspirin, reference compound] | – | – | 45.83 ± 4.21% | – |
| O=c1oc2ccc(Cl)cc2c(O)c1S(=O)(=O)Nc1ccccc1 [Compound 11a, 6-Chloro-4-hydroxy-2-oxo-N-phenyl-2H-chromene-3-sulfonamide] | 14.51 ± 1.827 µg/mL (≈ 41.2 µM) | 337 to 339 °C | 44.7 ± 8.22% | antioxidant activity [1]: particularly high antioxidant activity; antifungal activity compared with reference drug [4]: higher antifungal activity; in vitro anti-proteinase activity compared with aspirin (trypsin): as potent; antimicrobial activity compared with standard antimicrobials (ciprofloxacin and ketoconazole) (tested microorganisms): equal to or higher than the standard antimicrobials |
| O=C(O)c1cn(C2CC2)c2cc(N3CCNCC3)c(F)cc2c1=O [Ciprofloxacin, reference compound] | – | – | – | zone of inhibition at 10000 µg/mL [4]: < 15 mm; zone of inhibition at 10000 µg/mL [5, 8]: < 15 mm |
| NS(=O)(=O)c1ccc(NS(=O)(=O)c2c(O)c3cc(Cl)ccc3oc2=O)cc1 [Compound 10a, 6-Chloro-4-hydroxy-2-oxo-N-(4-sulfamoylphenyl)-2H-chromene-3-sulfonamide] | 93.12 ± 0.727 µg/mL (≈ 216 µM) | 245 to 247 °C | 18.78 ± 2.05% | antibacterial activity compared with reference drug [3]: comparable antibacterial activities to the standard; antibacterial activity compared with ciprofloxacin [6]: equal to ciprofloxacin; antimicrobial activity compared with standard antimicrobials (ciprofloxacin and ketoconazole) (tested microorganisms): equal to or higher than the standard antimicrobials |
| Cc1ccc2oc(=O)c(S(=O)(=O)Nc3ccc(C(=O)/C=C/c4ccc(Cl)cc4)cc3)c(O)c2c1 [Compound 12d, (E)-N-(4-(3-(4-chlorophenyl)acryloyl)phenyl)-4-hydroxy-6-methyl-2-oxo-2H-chromene-3-sulfonamide] | — ((—): inactive (IC50 > 200 μg/mL)) | 141 to 143 °C | 31.88 ± 3.82% | antibacterial activity compared with reference drug [3]: comparable antibacterial activities to the standard; antifungal activity compared with reference drug [4]: higher antifungal activity; antibacterial activity compared with ciprofloxacin [7]: higher antibacterial activity than ciprofloxacin; antimicrobial activity compared with ketoconazole ([5]; S. cerevisiae): higher than that of the corresponding control drug; zone of inhibition at 10000 µg/mL [5, 8]: 32 mm; antibacterial activity compared with ciprofloxacin [6]: equal to ciprofloxacin; antimicrobial activity compared with standard antimicrobials (ciprofloxacin and ketoconazole) (tested microorganisms): equal to or higher than the standard antimicrobials |
| O=C1O[C@H]([C@@H](O)CO)C(O)=C1O [Ascorbic acid, ascorbic acid, reference compound] | 2.83 ± 0.166 µg/mL (≈ 16.1 µM) | – | – | – |
| Cc1ccc2oc(=O)c3c(c2c1)OC(N)=C(C(N)=O)C3c1ccco1 (racemic) [Compound 6b, (±)-2-amino-4-(furan-2-yl)-9-methyl-5-oxo-4H,5H-pyrano[3,2-c]chromene-3-carboxamide] | 48.38 ± 4.61 µg/mL (≈ 143 µM) | 202 to 204 °C | – | zone of inhibition at 10000 µg/mL [2]: < 15 mm; zone of inhibition at 10000 µg/mL [3]: < 15 mm; in vitro anti-proteinase activity compared with aspirin (trypsin): more potent; % Inhibition of proteinase activity (trypsin; listed as 6h): 49.28 ± 10.93% |

— patent US10730885B1, “Coumarin derivatives” (KING SAUD UNIVERSITY, priority 2019, dated 2020)
